The record followed here is patent US4767758A, “Pharmaceutical compositions containing thiophene compounds, and new thiophene compounds” (Consiglio Nazionale Delle Ricerche, priority 1984, dated 1988).

Broadly, the LD50 is the dose at which mortality reaches 50%. A low value points to a more toxic substance.

For series [1], the system named is L 929 cells. Put plainly: Cytotoxicity on cell cultures (Table 2). The method, then: The biological and pharmacological activity of the compounds under examination was tested on cell cultures and under gamma radiations. Concentrations of 10^-6, 5×10^-6, 10^-5 and 10^-3 M of each compound were used. These aqueous solutions were added to cell cultures containing from 50 to 60 L 929 cells per mm^2; nutrient solution RPM-1-1640 containing 3% calf serum. Contact between the cells and the compound under examination was continued for six hours under nitrogen and under air. Parts of the solutions during the contact with the drug were irradiated in gamma cell with 1000, 2000 and 3000 rad always using a control sample without the drug.

Series [2] can be described thus: Reactivity with OH radicals, pulse irradiation (Table 3). The following applies: KCNS 10^-4 M; pulse 50 nsec, dose 18 Gy; λ=500 nm. An excerpt: (§1) For testing the reactivity with oxygen radicals, solutions of the compounds under examination in very pure water were submitted to irradiation by an electron flow in accordance with the following procedure:
The irradiated solution for measurement of reactivity with OH radicals contained KCNS 10^-4 M and increasing concentrations of the compounds under examination. The concentrations were 10^-6 and 6×10^-6for the first five compounds of Table 1, 10^-5 and 10^-4, 10^-3 M for the other eight compounds.
The water used for the tests was neutral and made absolutely pure by deionization and four distillations also in the presence of oxidizing agents (KMnO4).
The irradiation conditions were: pulse 50 nsec, dose 18 Gy.
Absorption was performed at λ=500 nm.

Series [3] in a line: Reactivity with O2 radicals, pulsed electron beams (Table 3). The following applies: potassium formiate solution saturated with O2; 12 MeV pulsed electron beams.
Source text: as §1
The O2 species was generated by irradiation of a […] solution of potassium formiate satured with O2 with 12 MeV pulsed electron beams.
The concentration of the O2 radical produced is depending from the irradiation dose (which is proportional to the length of the pulse) and was in any case in excess with respect to the concentration of the reacting substance.

Series [4] in a line: Acute toxicity test by oral and intravenous route on male mice (Table 4). The following applies: mouse, in vivo, male mice. It counts as in vivo. The method, then:
(§2) The acute toxicity test was carried out by oral and intravenous route on male mice, weighing 19-21 g, which were deprived of meal for 16 hrs before treatment. Oral administration was performed by a gastric probe at doses of 500, 750, 1000 and 2000 mg/kg respectively, of the compounds under examination in aqueous solution of Tween (R). The intravenous administrations was performed in the caudal vein at doses of 100 and 200 mg/kg in 0.9% sodium chloride solution. The administered volumes were 1 ml/20 g by oral route and 0.5 ml/20 g by intravenous route.
(§3) After administration the mice were kept under control for 14 days.

A further series has as its system male mice. The series is described as above. The format is in vivo. As to conditions: 14 days. On the procedure:
as §2, §3

Series [5] concerns L 929 cells. In words: Radiosensitization of cells in hypoxic condition under gamma radiation (Table 1). It counts as cell-based. The method, then:
The biological and pharmacological activity of the compounds under examination was tested on cell cultures and under gamma radiations. […] These aqueous solutions were added to cell cultures containing from 50 to 60 L 929 cells per mm^2; nutrient solution RPM-1-1640 containing 3% calf serum. Contact between the cells and the compound under examination was continued for six hours under nitrogen and under air. Parts of the solutions during the contact with the drug were irradiated in gamma cell with 1000, 2000 and 3000 rad always using a control sample without the drug.

Where [6] appears, read: culture time 0 hr, 0.5 × 10^-5 M, control 40.
The mark [7] stands for this setting: culture time 6 hr, 0.5 × 10^-5 M, control 62.
Setting [8] is: culture time 12 hr, 0.5 × 10^-5 M, control 80.
The mark [9] stands for this setting: culture time 24 hr, 0.5 × 10^-5 M, control 166.
[10] abbreviates: culture time 0 hr, 5 × 10^-5 M, control 40.
[11] abbreviates: culture time 6 hr, 5 × 10^-5 M, control 62.
The mark [12] stands for this setting: culture time 12 hr, 5 × 10^-5 M, control 80.
[13] abbreviates: culture time 24 hr, 5 × 10^-5 M, control 166.

Consider `O=[N+]([O-])c1cc([N+](=O)[O-])c(I)s1` [Compound 1], for which the “Cytotoxicity Index (number of cells)” value is recorded as 36 number of cells with L 929 cells [1] (setting [6]), 35 number of cells in the series on L 929 cells [1] (setting [7]), 42 number of cells in the series with L 929 cells [1] (setting [8]) and 71 number of cells in the series on L 929 cells [1] (setting [9]). In addition, the “Reactivity with OH radicals measured as a speed constant (KOH·)” value (from here on “Reactivity with OH radicals measured”) in series [2] turned out to be 2.1e+10 M⁻¹ s⁻¹. For the same compound, in series [3], the “Reactivity with O2 radicals measured as a speed constant (KO2-·)” value (shortened to “Reactivity with O2 radicals measured”) came to 3.5e+06 M⁻¹ s⁻¹. Besides, the figures for the LD50 at 336 h in series [4] (intravenous) and in series [4] (oral) were 200 mg/kg and 760 mg/kg, respectively. The “Death (dead/treated animals)” value in the series on male mice (intravenous, 100 mg/kg) is reported as 0/5; with male mice (intravenous, 200 mg/kg) it was 0/5; in the series with male mice (oral, 500 mg/kg), 0/5; in the series with male mice (oral, 750 mg/kg), 2/5; in the series on male mice (oral, 1000 mg/kg), 5/5.

As to `O=[N+]([O-])c1csc([N+](=O)[O-])c1` [Compound 2], the “Cytotoxicity Index (number of cells)” value with L 929 cells [1] (setting [6]) is listed as 46 number of cells; in the series on L 929 cells [1] (setting [7]), 40 number of cells; in the series on L 929 cells [1] (setting [8]) it was 68 number of cells; with L 929 cells [1] (setting [9]) it was 80 number of cells.

As for `CS(=O)(=O)c1cc([N+](=O)[O-])c(I)s1` [Compound 3], the “Cytotoxicity Index (number of cells)” value in the series on L 929 cells [1] (setting [6]) was 37 number of cells; in the series with L 929 cells [1] (setting [7]) it was 30 number of cells; in the series on L 929 cells [1] (setting [8]), 35 number of cells; with L 929 cells [1] (setting [9]) it was 50 number of cells.

In the case of `O=[N+]([O-])c1ccc(Oc2sccc2[N+](=O)[O-])cc1` [Compound 4], the “Cytotoxicity Index (number of cells)” value in the series on L 929 cells [1] (setting [6]) is listed as 56 number of cells; in the series on L 929 cells [1] (setting [7]), 34 number of cells; in the series on L 929 cells [1] (setting [8]), 48 number of cells; in the series with L 929 cells [1] (setting [9]), 70 number of cells. For the same compound, the “Reactivity with OH radicals measured” value in series [2] is 1.3e+10 M⁻¹ s⁻¹. For the same compound, the “Reactivity with O2 radicals measured” value in series [3] amounted to 20000 M⁻¹ s⁻¹.

Take `NC(=O)c1ccc([N+](=O)[O-])s1` [Compound 5]: in the series with L 929 cells [5] (concentration 5 × 10^-5 M), the “Radiosensitization Index (R.S.I.)” value came out at 1.40. The “Cytotoxicity Index (number of cells)” value in the series with L 929 cells [1] (setting [10]) was 40 number of cells; in the series on L 929 cells [1] (setting [11]), 32 number of cells; in the series with L 929 cells [1] (setting [12]), 50 number of cells; in the series with L 929 cells [1] (setting [13]) it was 80 number of cells. In addition, the “Reactivity with OH radicals measured” value in series [2] was determined as 2.3e+10 M⁻¹ s⁻¹. Besides, the “Reactivity with O2 radicals measured” value in series [3] is 30000 M⁻¹ s⁻¹.

As to `O=C(O)c1ccc([N+](=O)[O-])s1` [Compound 6], in the series with L 929 cells [5] (concentration 1 × 10^-4 M), the “Radiosensitization Index (R.S.I.)” value is given as 1.82. Also, the “Cytotoxicity Index (number of cells)” value is 50 number of cells with L 929 cells [1] (setting [10]), 60 number of cells with L 929 cells [1] (setting [11]), 70 number of cells in the series with L 929 cells [1] (setting [12]) and 110 number of cells in the series on L 929 cells [1] (setting [13]). In addition, the “Reactivity with OH radicals measured” value in series [2] is 7.5e+09 M⁻¹ s⁻¹. Also, in series [3], the “Reactivity with O2 radicals measured” value turned out to be 100000 M⁻¹ s⁻¹.

On to `O=C(O)CCNC(=O)c1ccc([N+](=O)[O-])s1` [Compound 7], for which the “Radiosensitization Index (R.S.I.)” value with L 929 cells [5] (concentration 1 × 10^-4 M) is 1.38. The “Cytotoxicity Index (number of cells)” value is 56 number of cells in the series with L 929 cells [1] (setting [10]), 70 number of cells in the series with L 929 cells [1] (setting [11]), 75 number of cells in the series with L 929 cells [1] (setting [12]) and 164 number of cells in the series with L 929 cells [1] (setting [13]).

On to `O=C(O)CCCNC(=O)c1ccc([N+](=O)[O-])s1` [Compound 8], for which the “Radiosensitization Index (R.S.I.)” value with L 929 cells [5] (concentration 1 × 10^-4 M) amounted to 1.30. Moreover, the “Cytotoxicity Index (number of cells)” value in the series on L 929 cells [1] (setting [10]) was 47 number of cells; in the series with L 929 cells [1] (setting [11]), 50 number of cells; in the series on L 929 cells [1] (setting [12]), 80 number of cells; in the series on L 929 cells [1] (setting [13]), 152 number of cells.

For the compound `O=C(c1ccc([N+](=O)[O-])s1)N1CCOCC1` [Compound 9, 5-nitro-2-carboxythiophene-morpholinamide], the “Radiosensitization Index (R.S.I.)” value in the series with L 929 cells [5] (concentration 1 × 10^-4 M) is 1.56. Further, the “Cytotoxicity Index (number of cells)” value is 64 number of cells in the series with L 929 cells [1] (setting [10]), 60 number of cells in the series on L 929 cells [1] (setting [11]), 80 number of cells in the series on L 929 cells [1] (setting [12]) and 138 number of cells with L 929 cells [1] (setting [13]). The “Reactivity with OH radicals measured” value in series [2] is 3.1e+10 M⁻¹ s⁻¹. In addition, the “Reactivity with O2 radicals measured” value in series [3] is 230000 M⁻¹ s⁻¹. This compound also returned an LD50 at 336 h in series [4] (oral) of 2000 mg/kg. Besides, the “Death (dead/treated animals)” value with male mice (intravenous, 100 mg/kg) is given as 0/5; in the series on male mice (intravenous, 200 mg/kg), 0/5; in the series on male mice (oral, 500 mg/kg), 0/5; in the series with male mice (oral, 750 mg/kg), 0/5; in the series on male mice (oral, 1000 mg/kg) it was 1/5; in the series on male mice (oral, 2000 mg/kg), 3/5.

As to `CN1CCN(C(=O)c2ccc([N+](=O)[O-])s2)CC1` [Compound 10, 5-nitro-2-carboxythiophene-N-methyl-piperazinamide], the “Radiosensitization Index (R.S.I.)” value with L 929 cells [5] (concentration 1 × 10^-4 M) turned out to be 1.58. Moreover, the “Cytotoxicity Index (number of cells)” value in the series with L 929 cells [1] (setting [10]) is 50 number of cells; in the series on L 929 cells [1] (setting [11]), 52 number of cells; in the series on L 929 cells [1] (setting [12]), 60 number of cells; with L 929 cells [1] (setting [13]), 86 number of cells. For the same compound, in series [2], the “Reactivity with OH radicals measured” value amounted to 1e+10 M⁻¹ s⁻¹. In series [3], the “Reactivity with O2 radicals measured” value turned out to be 33000 M⁻¹ s⁻¹.

Take `CC(=O)Nc1ccc([N+](=O)[O-])s1` [Compound 11, 5-nitro-2-(N-acetyl)-thienylamine]: the “Radiosensitization Index (R.S.I.)” value in the series on L 929 cells [5] (concentration 1 × 10^-4 M) is 1.65. Besides, the “Cytotoxicity Index (number of cells)” value is 44 number of cells in the series on L 929 cells [1] (setting [10]), 52 number of cells with L 929 cells [1] (setting [11]), 60 number of cells in the series with L 929 cells [1] (setting [12]) and 90 number of cells in the series with L 929 cells [1] (setting [13]).

For `O=C(O)C(C(=O)O)c1csc([N+](=O)[O-])c1` [Compound 12, 5-nitro-3-thiophenemalonic acid], in the series on L 929 cells [5] (concentration 1 × 10^-4 M), the “Radiosensitization Index (R.S.I.)” value was found to be 1.88. In addition, the “Cytotoxicity Index (number of cells)” value is 50 number of cells in the series with L 929 cells [1] (setting [10]), 60 number of cells in the series on L 929 cells [1] (setting [11]), 74 number of cells in the series on L 929 cells [1] (setting [12]) and 136 number of cells in the series with L 929 cells [1] (setting [13]). For the same compound, the “Reactivity with OH radicals measured” value in series [2] stood at 7.2e+09 M⁻¹ s⁻¹. In addition, in series [3], the “Reactivity with O2 radicals measured” value is 10000 M⁻¹ s⁻¹. For the same compound, the 50% lethal dose (LD50) at 336 h in series [4] (oral) amounted to 1200 mg/kg. For the same compound, the “Death (dead/treated animals)” value is 0/5 in the series on male mice (intravenous, 100 mg/kg); 0/5 in the series with male mice (intravenous, 200 mg/kg); 0/5 with male mice (oral, 500 mg/kg); 0/5 in the series on male mice (oral, 750 mg/kg); 2/5 with male mice (oral, 1000 mg/kg); 5/5 with male mice (oral, 2000 mg/kg).

For the compound `COCC(O)Cn1ccnc1[N+](=O)[O-]` (centres unmarked) [Misonidazole, reference compound], in the series on L 929 cells [5] (concentration 1 × 10^-3 M), the “Radiosensitization Index (R.S.I.)” value stood at 1.65.
